Laboratory results: paper PMC7281072 (Cancers, 2020)
Where two headings read alike, the source gives them in different places.

How the values were obtained:
[1] = system: OVCAR-5 human ovarian adenocarcinoma xenograft; parameters: species or system CB17 SCID mice; settings: mouse, in vivo
AKT1,2 phosphorylation = experiment: AKT phosphorylation ELISA, OVCAR-5 cells; type: cell-based, human; settings: for Vmax ± SE, pAKT 1/2 inhibition: Michaelis Menten model; for IC50: Homo sapiens, read-out: IC50, pAKT 1/2 inhibition
[2] = system: SKOV-3 human ovarian adenocarcinoma xenograft; parameters: species or system CB17 SCID mice; settings: mouse, in vivo
pERK1,2 [3] = experiment: Western immunoblotting densitometry, pERK1,2, OVCAR-3 cells; type: cell-based, human; settings: 25 μM; for ratio [pERK1+pERK2]/[GAPDH] band intensity: OVCAR-3 cells; for ratio [pERK1+pERK2]/[GAPDH] band intensity, single blot (panel A): panel A upper set, cell line not given
ERK1,2 phosphorylation [4] = experiment: ERK1/2 phosphorylation ELISA, UWB1.289+BRCA1 cells; type: cell-based, human; settings: for Vmax ± SE, pERK 1/2 inhibition: Michaelis Menten model; for IC50: Homo sapiens, read-out: IC50, pERK 1/2 inhibition
CB17 SCID mice = settings: both, mouse, in vivo, ip
pAKT = experiment: Western immunoblotting densitometry, pAKT, OVCAR-3 cells; type: cell-based, human; settings: 25 μM; for ratio [pAKT]/[GAPDH] band intensity: OVCAR-3 cells; for ratio [pAKT]/[GAPDH] band intensity, single blot (panel A): panel A upper set, cell line not given, control ratio 1.21
pERK1,2 [5] = experiment: Western immunoblotting densitometry, pERK1,2, SKOV-3 cells; type: cell-based, human; settings: 25 μM; for ratio [pERK1+pERK2]/[GAPDH] band intensity: SKOV-3 cells; for ratio [pERK1+pERK2]/[GAPDH] band intensity, single blot (panel A): panel A lower set, cell line not given
ERK1,2 phosphorylation [6] = experiment: ERK1/2 phosphorylation ELISA, UWB1.289 cells; type: cell-based, human; settings: for Vmax ± SE, pERK 1/2 inhibition: Michaelis Menten model; for IC50: Homo sapiens, read-out: IC50, pERK 1/2 inhibition

C[C@]12CC[C@H]3[C@@H](CCC4=CC(=O)NCC[C@@]43C)[C@@H]1CC[C@@H]2OC(=O)CCOc1ccc(N(CCCl)CCCl)cc1 [ENGA-L06E, 5a,7a-dimethyl-2-oxo-2,3,4,5,5a,5b,6,7,7a,8,9,10,10a,10b,11,12-hexa decahydrocyclopenta [5, 6] naphtho [1,2-d] azepin-8-yl 3-(4-(bis(2-chloroethyl)amino)phenoxy) propanoate]
Median Overall Survival (OS) [1]: 98 days | Progression Free Survival (PFS) [1]: 27 days | Response Rate (RR) [1]: 100% | Cures (mice alive for 120 days after tumor inoculation) ([1]; ip): 0/5 | MST (mean survival time) ([1]; ip): 93.2 ± 2.4 p < 0.01 Days | T/C% (mean survival time of treated versus saline controls) ([1]; ip): 184.8% | TI% (Tumor Inhibition) ([1]; ip): 117.0% | size of the primary tumor ([1]; ip): 220 ± 19.1 mm^3 | Vmax ± SE, pAKT 1/2 inhibition (AKT1,2 phosphorylation; 15 min): 57.76 ± 3.49 | Vmax ± SE, pAKT 1/2 inhibition (AKT1,2 phosphorylation; 30 min): 59.24 ± 0.49 | Vmax ± SE, pAKT 1/2 inhibition (AKT1,2 phosphorylation; 60 min): 62.49 ± 0.25 | IC50 (AKT1,2 phosphorylation; 0.25 h, 15 min): > 50 µM | IC50 (AKT1,2 phosphorylation; 0.5 h, 30 min): 49.8 µM | IC50 (AKT1,2 phosphorylation; 1 h, 60 min): 29.5 µM | Median Overall Survival (OS) [2]: 112 days | Progression Free Survival (PFS) [2]: 11 days | Response Rate (RR) [2]: 100% | Cures (mice alive for 120 days after tumor inoculation) ([2]; ip): 2/5 | MST (mean survival time) ([2]; ip): 79.6 ± 4.0 p < 0.01 Days | T/C% (mean survival time of treated versus saline controls) ([2]; ip): 195.6% | TI% (Tumor Inhibition) ([2]; ip): 67.6% | size of the primary tumor ([2]; ip): 478 ± 18.3 mm^3 | ratio [pERK1+pERK2]/[GAPDH] band intensity (pERK1,2 [3]; 30min, control ratio 1.71): 1.40 | ratio [pERK1+pERK2]/[GAPDH] band intensity (pERK1,2 [3]; 1h, control ratio 1.65): 0.96 | ratio [pERK1+pERK2]/[GAPDH] band intensity (pERK1,2 [3]; 3h, control ratio 1.99): 1.11 | ratio [pERK1+pERK2]/[GAPDH] band intensity (pERK1,2 [3]; 6h, control ratio 1.85): 0.54 | ratio [pERK1+pERK2]/[GAPDH] band intensity (pERK1,2 [3]; 12h, control ratio 1.82): 0.49 | ratio [pERK1+pERK2]/[GAPDH] band intensity (pERK1,2 [3]; 24h, control ratio 1.92): 0.58 | ratio [pERK1+pERK2]/[GAPDH] band intensity, single blot (panel A) (pERK1,2 [3]; 1h, control ratio 1.85): 0.74 | ratio [pERK1+pERK2]/[GAPDH] band intensity, single blot (panel A) (pERK1,2 [3]; 3h, control ratio 1.85): 1.02 | Vmax ± SE, pERK 1/2 inhibition (ERK1,2 phosphorylation [4]; 15 min): 59.43 ± 1.10 | Vmax ± SE, pERK 1/2 inhibition (ERK1,2 phosphorylation [4]; 30 min): 72.79 ± 1.14 | Vmax ± SE, pERK 1/2 inhibition (ERK1,2 phosphorylation [4]; 60 min): 74.35 ± 0.49 | IC50 (ERK1,2 phosphorylation [4]; 0.25 h, 15 min): 28.7 µM | IC50 (ERK1,2 phosphorylation [4]; 0.5 h, 30 min): 12.4 µM | IC50 (ERK1,2 phosphorylation [4]; 1 h, 60 min): 9.29 µM | LD10 (CB17 SCID mice): 120 mg/kg | ratio [pAKT]/[GAPDH] band intensity (pAKT; 30min, control ratio 1.23): 0.92 | ratio [pAKT]/[GAPDH] band intensity (pAKT; 1h, control ratio 1.14): 0.62 | ratio [pAKT]/[GAPDH] band intensity (pAKT; 3h, control ratio 1.27): 0.61 | ratio [pAKT]/[GAPDH] band intensity (pAKT; 6h, control ratio 1.26): 0.54 | ratio [pAKT]/[GAPDH] band intensity (pAKT; 12h, control ratio 1.18): 0.50 | ratio [pAKT]/[GAPDH] band intensity (pAKT; 24h, control ratio 1.29): 0.59 | ratio [pAKT]/[GAPDH] band intensity, single blot (panel A) (pAKT; 1h): 0.52 | ratio [pAKT]/[GAPDH] band intensity, single blot (panel A) (pAKT; 3h): 0.22 | ratio [pERK1+pERK2]/[GAPDH] band intensity (pERK1,2 [5]; 15min, control ratio 1.70): 1.91 | ratio [pERK1+pERK2]/[GAPDH] band intensity (pERK1,2 [5]; 30min, control ratio 1.70): 1.74 | ratio [pERK1+pERK2]/[GAPDH] band intensity (pERK1,2 [5]; 1h, control ratio 1.78): 1.35 | ratio [pERK1+pERK2]/[GAPDH] band intensity (pERK1,2 [5]; 3h, control ratio 1.74): 0.68 | ratio [pERK1+pERK2]/[GAPDH] band intensity (pERK1,2 [5]; 12h, control ratio 1.61): 0.65 | ratio [pERK1+pERK2]/[GAPDH] band intensity, single blot (panel A) (pERK1,2 [5]; 1h, control ratio 1.78): 0.99 | ratio [pERK1+pERK2]/[GAPDH] band intensity, single blot (panel A) (pERK1,2 [5]; 3h, control ratio 1.78): 0.39 | Vmax ± SE, pERK 1/2 inhibition (ERK1,2 phosphorylation [6]; 15 min): 76.21 ± 2.11 | Vmax ± SE, pERK 1/2 inhibition (ERK1,2 phosphorylation [6]; 60 min): 89.63 ± 2.53 | IC50 (ERK1,2 phosphorylation [6]; UWB1289, 0.25 h, 15 min): 6.81 µM | IC50 (ERK1,2 phosphorylation [6]; UWB1289, 0.5 h, 30 min): 4.12 µM
